The values that follow come from the NIST ThermoML archive (doi:10.1016/j.jct.2009.05.019).

A short description of the series: molar enthalpy of vaporization or sublimation. The conditions noted are these: 298.15 K; Crystal; Calvet microcalorimetry.

The structures appear in SMILES notation. ± gives the expanded uncertainty stated by the source.

Take `c1ccc2c(c1)sc1ccccc12` [dibenzothiophene]: the molar enthalpy was determined as 93.2 ± 1 kJ/mol.
